Results reported in ChEMBL document CHEMBL1201862, “PubChem BioAssay data set” (2004).
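Protocol summary: plate cells (96-well), add compound at 5 concentrations, incubate 48 h, interpolate endpoints linearly. GI50 is the concentration that inhibits growth by half.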 Activity calls are given as the source filed them. Rule as the data show it: active = GI50 up to about 1.1 µM and inactive = higher.

What was measured:
Experiment in all cases: NCI-60 cell line screen, 48 h
[1] = test system: NCI-H226
[2] = test system: HCC 2998
[3] = test system: UO-31
[4] = test system: NCI/ADR-RES
[5] = test system: K562
[6] = test system: LOX IMVI
[7] = test system: COLO 205
[8] = test system: MCF7
[9] = test system: HOP-62
[10] = test system: OVCAR-3
[11] = test system: RPMI-8226
[12] = test system: PC-3
[13] = test system: SF-268
[14] = test system: A549
[15] = test system: SW-620
[16] = test system: U-251
[17] = test system: TK-10
[18] = test system: KM12
[19] = test system: SN12C
[20] = test system: SK-OV-3

Compound	GI50 [1]	GI50 [2]	GI50 [3]	GI50 [4]	GI50 [5]	GI50 [6]	GI50 [7]	GI50 [8]	GI50 [9]	GI50 [10]	GI50 [11]	GI50 [12]	GI50 [13]	GI50 [14]	GI50 [15]	GI50 [16]	GI50 [17]	GI50 [18]	GI50 [19]	GI50 [20]
OC1CCC(COC(c2ccccc2)(c2ccccc2)c2ccccc2)O1 (stereo not given)	24.2 µM (inactive)	16.4 µM (inactive)	17.3 µM (inactive)	17.7 µM (inactive)	14.8 µM (inactive)	15.4 µM (inactive)	17.1 µM (inactive)	17.1 µM (inactive)	19.6 µM (inactive)	18.4 µM (inactive)	19.5 µM (inactive)	10.7 µM (inactive)	16.9 µM (inactive)	17.7 µM (inactive)	17.5 µM (inactive)	18.8 µM (inactive)	> 10 µM (inactive)	17.7 µM (inactive)	19.2 µM (inactive)	20.2 µM (inactive)
CN1CCN(CCCCN2c3ccccc3Sc3ccc(N=[N+]=[N-])cc32)CC1	14.3 µM (inactive)	3.74 µM (inactive)	7.57 µM (inactive)	11.7 µM (inactive)	1.89 µM (inactive)	2.47 µM (inactive)	1.86 µM (inactive)	4.17 µM (inactive)	15.2 µM (inactive)	8.07 µM (inactive)	2.36 µM (inactive)	4.65 µM (inactive)	9.71 µM (inactive)	12.9 µM (inactive)	2.68 µM (inactive)	4.95 µM (inactive)	12.7 µM (inactive)	6.22 µM (inactive)	12.2 µM (inactive)	> 10 µM (inactive)
CCOC(=O)c1oc2ccc([N+](=O)[O-])c3c2c1CCC3	> 88.7 µM (inactive)	> 87.9 µM (inactive)	66.7 µM (inactive)	64.9 µM (inactive)	> 69.7 µM (inactive)	66.5 µM (inactive)	> 85.1 µM (inactive)	> 76.6 µM (inactive)	24.3 µM (inactive)	> 100 µM (inactive)	> 100 µM (inactive)	> 100 µM (inactive)	27.2 µM (inactive)	> 100 µM (inactive)	> 90.8 µM (inactive)	29.9 µM (inactive)	47.6 µM (inactive)	> 79.3 µM (inactive)	> 84.3 µM (inactive)	9.89 µM (inactive)
Nc1ncnc2c1ncn2CCCNO	> 100 µM (inactive)	> 100 µM (inactive)	> 100 µM (inactive)	> 100 µM (inactive)	> 100 µM (inactive)	> 100 µM (inactive)	> 100 µM (inactive)	> 100 µM (inactive)	> 100 µM (inactive)	> 100 µM (inactive)	> 100 µM (inactive)	> 100 µM (inactive)	> 100 µM (inactive)	> 100 µM (inactive)	> 100 µM (inactive)	> 100 µM (inactive)	> 100 µM (inactive)	> 100 µM (inactive)	> 100 µM (inactive)	> 100 µM (inactive)
COc1ccc(-c2nc3ccc(C)cc3o2)c(OC)c1	30 µM (inactive)	14.9 µM (inactive)	24 µM (inactive)	29.4 µM (inactive)	22.1 µM (inactive)	16.6 µM (inactive)	20.7 µM (inactive)	30 µM (inactive)	26.8 µM (inactive)	15.7 µM (inactive)	19.5 µM (inactive)	24.3 µM (inactive)	28.6 µM (inactive)	4.76 µM (inactive)	29.3 µM (inactive)	1.63 µM (inactive)	27.4 µM (inactive)	19.2 µM (inactive)	26.5 µM (inactive)	41.5 µM (inactive)
Cn1nc2c(c1N)Cc1c(nn(C)c1N)-c1ccccc1-2	> 100 µM (inactive)	> 100 µM (inactive)	> 100 µM (inactive)	> 100 µM (inactive)	> 100 µM (inactive)	> 100 µM (inactive)	> 100 µM (inactive)	> 100 µM (inactive)	> 100 µM (inactive)	> 100 µM (inactive)	> 100 µM (inactive)	> 100 µM (inactive)	> 100 µM (inactive)	> 100 µM (inactive)	> 100 µM (inactive)	> 100 µM (inactive)	> 100 µM (inactive)	> 100 µM (inactive)	> 100 µM (inactive)	> 100 µM (inactive)
CN1C(=O)C23CC4=CC=CC(O)C4N2C(=O)C1(CO)SS3 (stereo not given)	0.0891 µM (active)	0.155 µM (active)	0.565 µM (active)	0.0224 µM (active)	0.139 µM (active)	0.17 µM (active)	0.0524 µM (active)	0.16 µM (active)	0.182 µM (active)	0.199 µM (active)	0.163 µM (active)	0.167 µM (active)	0.207 µM (active)	0.171 µM (active)	0.237 µM (active)	0.153 µM (active)	0.179 µM (active)	0.0991 µM (active)	0.0705 µM (active)	1.26 µM (inactive)
O=C1c2ccccc2C(=O)N1CCCCCCNOCCCN1C(=O)c2ccccc2C1=O	> 100 µM (inactive)	> 100 µM (inactive)	34 µM (inactive)	26.4 µM (inactive)	29.7 µM (inactive)	36.2 µM (inactive)	38.7 µM (inactive)	35.3 µM (inactive)	45.1 µM (inactive)	23.7 µM (inactive)	14.4 µM (inactive)	28.3 µM (inactive)	> 100 µM (inactive)	32.4 µM (inactive)	> 100 µM (inactive)	63 µM (inactive)	59 µM (inactive)	27.1 µM (inactive)	> 100 µM (inactive)	56.9 µM (inactive)
O=C(NCCN1CCCC1)c1cn2c(ccc3sc4ccccc4c(=O)c32)n1	17 µM (inactive)	6.56 µM (inactive)	13.3 µM (inactive)	13.3 µM (inactive)	1.5 µM (inactive)	1.46 µM (inactive)	11.7 µM (inactive)	2.77 µM (inactive)	11.7 µM (inactive)	14.7 µM (inactive)	1.52 µM (inactive)	13.8 µM (inactive)	12.4 µM (inactive)	7.19 µM (inactive)	1.51 µM (inactive)	16.7 µM (inactive)	12.5 µM (inactive)	16.7 µM (inactive)	10.9 µM (inactive)	16.3 µM (inactive)
CN(C)/C=C1\CCc2ccc([N+](=O)[O-])cc2C1=O	> 100 µM (inactive)	70.8 µM (inactive)	> 100 µM (inactive)	75 µM (inactive)	24.4 µM (inactive)	19.6 µM (inactive)	25.5 µM (inactive)	26 µM (inactive)	> 100 µM (inactive)	18.3 µM (inactive)	27.4 µM (inactive)	30.6 µM (inactive)	> 100 µM (inactive)	> 100 µM (inactive)	32.1 µM (inactive)	75.7 µM (inactive)	> 100 µM (inactive)	55.8 µM (inactive)	18.3 µM (inactive)	> 100 µM (inactive)
Cc1[nH]c2c(c1C)S(=O)(=O)c1cc3ccccc3nc1N2	22 µM (inactive)	65.2 µM (inactive)	21.6 µM (inactive)	32.3 µM (inactive)	10.9 µM (inactive)	10.6 µM (inactive)	20 µM (inactive)	5.15 µM (inactive)	18.2 µM (inactive)	19.9 µM (inactive)	14.7 µM (inactive)	34.3 µM (inactive)	28.1 µM (inactive)	36.3 µM (inactive)	40.4 µM (inactive)	11.2 µM (inactive)	37.7 µM (inactive)	27.9 µM (inactive)	16.4 µM (inactive)	30.8 µM (inactive)
O=C(Nc1ccc(Cl)c(Cl)c1)N1N=C2c3ccccc3CCC2C1c1ccc(Cl)cc1 (stereo not given)	> 100 µM (inactive)	> 100 µM (inactive)	> 100 µM (inactive)	> 100 µM (inactive)	> 100 µM (inactive)	> 100 µM (inactive)	> 100 µM (inactive)	> 100 µM (inactive)	> 100 µM (inactive)	> 100 µM (inactive)	> 100 µM (inactive)	> 100 µM (inactive)	> 100 µM (inactive)	> 100 µM (inactive)	> 100 µM (inactive)	> 100 µM (inactive)	> 100 µM (inactive)	> 100 µM (inactive)	> 100 µM (inactive)	> 100 µM (inactive)
COC(=O)C[C@H](CCSC)NC(=O)C[C@H](CCSC)NC(=O)C[C@H](CCSC)NC(=O)OC(C)(C)C	41.7 µM (inactive)	> 100 µM (inactive)	> 100 µM (inactive)	> 100 µM (inactive)	> 100 µM (inactive)	> 100 µM (inactive)	> 100 µM (inactive)	38.1 µM (inactive)	39.4 µM (inactive)	22.5 µM (inactive)	> 100 µM (inactive)	> 100 µM (inactive)	20.4 µM (inactive)	43.6 µM (inactive)	> 100 µM (inactive)	19.5 µM (inactive)	19.1 µM (inactive)	> 100 µM (inactive)	32.8 µM (inactive)	20 µM (inactive)
Sc1ncnc2nc[nH]c12 [MERCAPTOPURINE ANHYDROUS]	58.5 µM (inactive)	3.51 µM (inactive)	6.85 µM (inactive)	3.56 µM (inactive)	0.351 µM (active)	0.383 µM (active)	4.94 µM (inactive)	1.64 µM (inactive)	1.75 µM (inactive)	0.857 µM (active)	1.76 µM (inactive)	4.39 µM (inactive)	4.11 µM (inactive)	30.1 µM (inactive)	6.38 µM (inactive)	13.7 µM (inactive)	1.94 µM (inactive)	7.57 µM (inactive)	23.8 µM (inactive)	1.03 µM (active)
